Several values for one entry are separate records, joined by “and”; a condition that tells them apart may be missing. Identical values can stand only once.
Columns and labels:
[1] = test system: uterine horns in mice; assay: Weight of uterine horns in ovariectomized mice: estrogen, oxandrolone or combination; conditions: second experiment (oxandrolone); for D Hs/BW (dry horns Rt + Lt / body weight) / Lt H D (left horn dry weight) / Rt H D (right horn dry weight): dried 90° C. 24 hrs; for W Hs/BW (wet horns Rt + Lt / body weight) / Lt H W (left horn wet weight) / Rt H W (right horn wet weight): daily injections 7 days
Description: (§1) The protocol employed in the experiment included taking ovariectomized female mice ordered from Charles River Laboratories, of which the females were 32-52 days old, after ovariectomy, and separating them into four groups. The first group of mice received daily injections of testosterone for 7 days. A second group of mice received daily injections of estradiol for 7 days. A third group of mice received daily injections of testosterone plus estradiol for 7 days. Finally, the mice in the fourth group received daily injections of a control vehicle for 7 days. All of the injections were given 1M at 10 AM, alternatively to the right and left buttock. The daily amount injected of the estradiol and/or testosterone was 10 μg/Kg of each hormone, delivered at a dose of 0.25 ml.
(§2) The injections were produced based upon the following protocols. The estradiol selected was the oil-dissolved 17β-estradiol from Sigma (17β-estradiol E-8875. The estradiol was prepared by dissolving 200 μg of the hormone in 0.25 ml ethanol for a ×1000 stock (0.8 mg/1 ml=×1000 stock). Next, 10 μl aliquots were dispensed into nine 15 ml conical plastic tubes and frozen. For each injection, one of the tubes was thawed, 9.99 ml saline was added and then mixed to obtain 10 ml of the solution at a level of 0.8 μg/1 ml. Then, 0.25 ml were injected into each animal.
A second experiment was performed using the protocols set above. The only change included replacing testosterone with oxandrolone. The oxandrolone was prepared by dissolving a 20 mg powder of the original vial in 1.0 ml of DMSO. 100 μl aliquots were then dispensed into 10 new vials (each containing now 2 mg/vial, or 20 μg/μl) and all vials, except one, were frozen at −20° C. The 9 frozen vials are referred to herein as “Original Stocks”.
Next, one of the Original Stock vials containing 100 μl of 20 μg/μl Oxandrolone was diluted to a 1:5 ratio in DMSO by adding 400 μl DMSO. […] 50 μl aliquots were then dispensed into 10 vials (each containing now 0.4 μg/μl, or 20 μg/50 μl) of which nine were frozen. The frozen vials from this part of the experiment are herein referred to as “Diluted Stocks”.
One Diluted Stock vial was taken and diluted in 24.95 ml saline to get a solution of 20 μg/25 ml oxandrolone, or 0.2 μg/0.25 ml. The 0.5 ml aliquots are then dispensed into 20 vials and frozen. The remaining 15 ml were discarded. On the day of injection, each one of the vials was thawed 0.25 ml were injected into each animal based upon a 20 gm animal. The dose injected may be adjusted per actual weight of the animal (may vary from 19 gm to 24 gm, 0.238 ml to 0.3 ml).
After the last day of injections, the mice were weighed and then euthanized in a CO2 chamber. Blood was obtained from the heart in an amount of 2-5 ml. Time was allotted to let it clot and then it was centrifuged and the serum was collected and stored at −80° C. The abdomen was opened by a longitudinal ventral incision. Then the uterine horns were identified and the right horn was transected from the level of the vagina until the ovary (thus, without the ovary and without the parametrium). This process was repeated for the left horn. Both horns were weighed to determine the wet weight of the horns. Then the horns were placed on silver foil paper and baked in an oven at 90° C. for 24 hrs. Then the dry weight of the horns was taken.

[2] = test system: uterine horns in mice; assay: Weight of uterine horns in ovariectomized mice: estrogen, testosterone or combination; conditions: daily injections 7 days, 10 μg/Kg of each hormone; for D Hs/BW (dry horns Rt + Lt / body weight) / Lt H D (left horn dry weight) / Rt H D (right horn dry weight): dried 90° C. 24 hrs
Description: Applicants performed a set of experiments to determine the effects of estrogen and testosterone on weight of uterine horns in mice.
as §1, §2
The testosterone selected was testosterone enanthane from Bristol Myers Squib (Delatestryl™). The testosterone was prepared by aspirating […] from a bottle containing 200 mg/1 ml testosterone via a tuberculin syringe of 1.0 ml. Next, 24.9 ml of ethanol was poured into a 50 ml conical plastic tube. Then 0.1 ml of the testosterone was dissolved in the syringe with the 24.9 ml of ethanol. This produced a ×1000 stock of 0.8 mg/1 ml. Similar to the estradiol protocol, next, 10 μl aliquots were dispensed into nine 15 ml conical plastic tubes and frozen. For each injection, one of the tubes was thawed, 9.99 ml saline is added and then mixed to obtain 10 ml of the solution at a level of 0.8 μg/1 ml. Then, 0.25 ml were injected into each animal. The injections were based for a 20 gm animal. The dose injected per actual weight of the animal may be adjusted by varying the weight, i.e., may vary from 19 gm to 24 gm (0.238 ml to 0.3 ml).
After the seven days of injections, the mice were euthanized via injection from Lumina. The mice were then weighed. After midline laparotomy, 2 ml to 5 ml does of blood was obtained from the heart. The blood was allowed to clot and was then centrifuged and the resulting serum was collected and stored at −80° C. The uterine horns were then identified, transected from the level of the vagina till the ovary (without the ovary and without the parametrium), weighted (i.e., wet weight of Rt and Lt horn), and placed separately in a piece of silver foil paper, and baked in an oven at 90° C. for 24 hrs to obtain the dry weight of the horns.

[3] = individual animal, ovariectomized female mice

SMILES: C[C@]12COC(=O)C[C@@H]1CC[C@@H]1[C@@H]2CC[C@@]2(C)[C@H]1CC[C@]2(C)O [Ox, oxandrolone]
- D Hs/BW (dry horns Rt + Lt / body weight) ([1]; group mean): 0.35 mg/gm
- W Hs/BW (wet horns Rt + Lt / body weight) ([1]; group mean): 1.54 mg/gm
- D Hs/BW (dry horns Rt + Lt / body weight) ([1]; individual animal): 0.26 mg/gm and 0.20 mg/gm and 0.76 mg/gm and 0.16 mg/gm and 0.37 mg/gm
- Lt H D (left horn dry weight) ([1]; individual animal): 2.3 mg and 2.2 mg and 5.5 mg and 1.4 mg and 4.3 mg
- Rt H D (right horn dry weight) ([1]; individual animal): 3.4 mg and 2.0 mg and 12.5 mg and 2.2 mg and 4.2 mg
- Lt H W (left horn wet weight) ([1]; individual animal): 14.4 mg and 13.8 mg and 22.9 mg and 11.3 mg and 19.4 mg
- Rt H W (right horn wet weight) ([1]; individual animal): 16.5 mg and 12.0 mg and 35.7 mg and 13.2 mg and 14.6 mg
- W Hs/BW (wet horns Rt + Lt / body weight) ([1]; individual animal): 1.40 mg/gm and 1.22 mg/gm and 2.47 mg/gm and 1.11 mg/gm and 1.50 mg/gm

SMILES: CCCCCCC(=O)O[C@H]1CC[C@H]2[C@@H]3CCC4=CC(=O)CC[C@]4(C)[C@H]3CC[C@]12C [T, testosterone enanthane]
- Lt H W (left horn wet weight) ([2]; group mean): 12.6 mg
- Rt H W (right horn wet weight) ([2]; group mean): 14.0 mg
- W Hs/BW (wet horns Rt + Lt / body weight) ([2]; group mean): 1.21 mg/gm
- D Hs/BW (dry horns Rt + Lt / body weight) ([2]; group mean): 0.27 mg/gm
- Lt H D (left horn dry weight) ([2]; group mean): 3.2 mg
- Rt H D (right horn dry weight) ([2]; group mean): 2.8 mg
- D Hs/BW (dry horns Rt + Lt / body weight) ([2]; individual animal): 0.57 mg/gm and 0.25 mg/gm and 0.16 mg/gm and 0.09 mg/gm and 0.31 mg/gm
- Lt H D (left horn dry weight) ([2]; individual animal): 8.2 mg and 4.3 mg and 0.8 mg and 0.9 mg and 1.9 mg
- Rt H D (right horn dry weight) ([2]; individual animal): 4.3 mg and 1.1 mg (2×) and 2.5 mg and 4.8 mg
- Lt H W (left horn wet weight) [2, 3]: 21.3 mg and 15.6 mg and 3.7 mg and 8.4 mg and 13.9 mg
- Rt H W (right horn wet weight) [2, 3]: 16.2 mg and 11.7 mg and 13.5 mg and 8.4 mg and 20.1 mg
- W Hs/BW (wet horns Rt + Lt / body weight) [2, 3]: 1.72 mg/gm and 1.26 mg/gm and 0.81 mg/gm and 0.72 mg/gm and 1.55 mg/gm

SMILES: C[C@]12CC[C@@H]3c4ccc(O)cc4CC[C@H]3[C@@H]1CC[C@@H]2O [E, 17β-estradiol]
- Lt H W (left horn wet weight) ([2]; group mean): 20.0 mg
- Rt H W (right horn wet weight) ([2]; group mean): 19.5 mg
- W Hs/BW (wet horns Rt + Lt / body weight) ([2]; group mean): 1.82 mg/gm
- D Hs/BW (dry horns Rt + Lt / body weight) ([2]; group mean): 0.27 mg/gm
- Lt H D (left horn dry weight) ([2]; group mean): 2.9 mg
- Rt H D (right horn dry weight) ([2]; group mean): 3.0 mg
- D Hs/BW (dry horns Rt + Lt / body weight) ([2]; individual animal): 0.28 mg/gm and 0.21 mg/gm and 0.38 mg/gm and 0.24 mg/gm and 0.22 mg/gm
- Lt H D (left horn dry weight) ([2]; individual animal): 2.9 mg and 2.2 mg and 4.2 mg and 2.6 mg and 2.4 mg
- Rt H D (right horn dry weight) ([2]; individual animal): 3.3 mg and 2.5 mg and 4.0 mg and 2.4 mg and 2.6 mg
- Lt H W (left horn wet weight) [2, 3]: 21.5 mg and 18.0 mg and 24.2 mg and 19.5 mg and 16.7 mg
- Rt H W (right horn wet weight) [2, 3]: 20.6 mg and 16.2 mg and 26.6 mg and 17.3 mg and 16.9 mg
- W Hs/BW (wet horns Rt + Lt / body weight) [2, 3]: 1.92 mg/gm and 1.55 mg/gm and 2.37 mg/gm and 1.79 mg/gm and 1.47 mg/gm
- D Hs/BW (dry horns Rt + Lt / body weight) ([1]; group mean): 0.66 mg/gm
- W Hs/BW (wet horns Rt + Lt / body weight) ([1]; group mean): 3.63 mg/gm
- D Hs/BW (dry horns Rt + Lt / body weight) ([1]; individual animal): 0.97 mg/gm and 0.60 mg/gm and 0.61 mg/gm and 0.49 mg/gm and 0.63 mg/gm
- Lt H D (left horn dry weight) ([1]; individual animal): 12 mg and 4.8 mg and 7.7 mg and 4.6 mg and 5 mg
- Rt H D (right horn dry weight) ([1]; individual animal): 9.9 mg and 7.3 mg and 4.7 mg and 6.5 mg and 8.0 mg
- Lt H W (left horn wet weight) ([1]; individual animal): 44.9 mg and 29.7 mg and 48.1 mg and 34.4 mg and 32.7 mg
- Rt H W (right horn wet weight) ([1]; individual animal): 46.7 mg and 41.2 mg and 30 mg and 35 mg and 44.2 mg
- W Hs/BW (wet horns Rt + Lt / body weight) ([1]; individual animal): 4.06 mg/gm and 3.52 mg/gm and 3.82 mg/gm and 3.05 mg/gm and 3.70 mg/gm

— patent US20060154907A1, “Method of treating hormonal deficiencies in women undergoing estrogen replacement therapy” (Barr Laboratories, Inc., priority 2000, published 2006)
